Each compound was assayed against T1, TRKA (Homo sapiens, UniProt P04629) (assay: In vitro biochemical HTRF KinEASE kinase inhibition, TRKA). Details: not given.
T1 construct: purchased Carna Biosciences 08-186
T1 sequence (P04629 33-796): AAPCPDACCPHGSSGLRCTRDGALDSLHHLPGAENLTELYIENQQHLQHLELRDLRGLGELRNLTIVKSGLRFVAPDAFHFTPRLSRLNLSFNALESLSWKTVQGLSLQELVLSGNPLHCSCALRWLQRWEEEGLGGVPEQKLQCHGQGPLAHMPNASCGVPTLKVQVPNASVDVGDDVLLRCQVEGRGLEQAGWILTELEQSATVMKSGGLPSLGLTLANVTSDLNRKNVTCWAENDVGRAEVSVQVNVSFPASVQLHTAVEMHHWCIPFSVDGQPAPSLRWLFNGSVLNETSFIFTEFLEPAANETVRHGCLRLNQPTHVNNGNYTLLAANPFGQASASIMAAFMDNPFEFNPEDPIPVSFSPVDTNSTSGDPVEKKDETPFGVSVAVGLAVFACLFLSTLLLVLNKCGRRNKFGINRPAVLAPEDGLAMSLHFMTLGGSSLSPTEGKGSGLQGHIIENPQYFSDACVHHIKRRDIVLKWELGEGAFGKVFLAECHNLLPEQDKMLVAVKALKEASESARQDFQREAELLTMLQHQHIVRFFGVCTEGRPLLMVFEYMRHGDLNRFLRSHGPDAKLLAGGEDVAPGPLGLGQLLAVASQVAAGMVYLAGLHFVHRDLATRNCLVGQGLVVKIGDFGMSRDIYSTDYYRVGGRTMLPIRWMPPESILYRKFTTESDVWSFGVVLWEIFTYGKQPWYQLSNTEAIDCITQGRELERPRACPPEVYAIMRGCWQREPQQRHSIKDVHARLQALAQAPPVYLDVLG

How did the IC50 turn out when `CC(Nc1ccn2ncc(-c3cn[nH]c3)c2n1)c1cc(F)ccc1OCC#N` (stereo not drawn) [Compound b11-36, 2-(2-(1-((3-(1H-pyrazol-4-yl)pyrazolo [1,5-a]pyrimidin-5-yl)amino)ethyl)-4-fluorophenoxy) acetonitrile] was run?
The IC50 was 88.6 nM.

Same assay, conditions: wild-type kinase, final ATP 3.727 μmol/L; read-out: TRKA IC50

Which IC50 does the source give for `CC(Nc1ccn2ncc(-c3cnn(CC(F)F)c3)c2n1)c1cc(F)ccc1OCC(F)F` (stereo not drawn) [Compound 6, N-(1-(2-(2,2-difluoroethoxy)-5-fluorophenyl)ethyl)-3-(1-(2,2-difluoroethyl)-1H-pyrazol-4-yl) pyrazolo [1,5-a] pyrimidin-5-amine] here?
The IC50 was 12.4 nM.

For `CC(Nc1ccn2ncc(-c3cnn(C4CCCCC4O)c3)c2n1)c1cc(F)ccc1OCC(F)F` (stereo not drawn) [Compound 9, 2-(4-(5-((1-(2-(2,2-difluoroethoxy)-5-fluorophenyl)ethyl)amino)pyrazolo [1,5-a]pyrimidin-3-yl)-1H-pyrazol-1-yl) cyclohexan-1-ol], which IC50 is on record?
The IC50 was 11.4 nM.

`CC(Nc1ccn2ncc(-c3cnn(C4CCOCC4)c3)c2n1)c1cc(F)ccc1OCC(F)F` (stereo not drawn) [Compound 11, N-(1-(2-(2,2-difluoroethoxy)-5-fluorophenyl)ethyl)-3-(1-(tetrahydro-2H-pyran-4-yl)-1H-pyrazol-4-yl) pyrazolo [1,5-a] pyrimidin-5-amine] was tested. Which IC50 did it give?
The IC50 was 11.8 nM.

Which IC50 does the source give for `CC(Nc1ccn2ncc(-c3cnn(S(C)(=O)=O)c3)c2n1)c1cc(F)ccc1OCC(F)F` (stereo not drawn) [Compound 13, N-(1-(2-(2,2-difluoroethoxy)-5-fluorophenyl)ethyl)-3-(1-(methylsulfonyl)-1H-pyrazol-4-yl) pyrazolo [1,5-a] pyrimidin-5-amine] here?
The IC50 was 10.4 nM.

For `CC(Nc1ccn2ncc(-c3cnn(C)c3)c2n1)c1cc(F)cc(F)c1OCC(F)F` (stereo not drawn) [Compound 15, N-(1-(2-(2,2-difluoroethoxy)-3,5-difluorophenyl)ethyl)-3-(1-methyl-1H-pyrazol-4-yl) pyrazolo [1,5-a] pyrimidin-5-amine], which IC50 is on record?
The IC50 was 11.7 nM.

With `CC(Nc1ccn2ncc(-c3cnn(C)c3)c2n1)c1ccccc1OCC(F)F` (stereo not drawn) [Compound 17, N-(1-(2-(2,2-difluoroethoxy)phenyl)ethyl)-3-(1-methyl-1H-pyrazol-4-yl) pyrazolo [1,5-a] pyrimidin-5-amine] as the compound, how does the IC50 read?
The IC50 was 18.3 nM.

`CC(Nc1ccn2ncc(-c3cnn(C)c3)c2n1)c1cc(F)ccc1O` (stereo not drawn) [Compound a1-2, 4-fluoro-2-(1-((3-(1-methyl-1H-pyrazol-4-yl)pyrazolo [1,5-a]pyrimidin-5-yl)amino)ethyl) phenol] was tested. Which IC50 did it give?
Its IC50 is 9 nM.

With `CC(Nc1ccn2ncc(-c3cnn(C4CCCCC4O)c3)c2n1)c1cc(F)ccc1O` (stereo not drawn) [Compound a3-4, 4-fluoro-2-(1-((3-(1-(2-hydroxycyclohexyl)-1H-pyrazol-4-yl)pyrazolo [1,5-a]pyrimidin-5-yl)amino)ethyl) phenol] as the compound, how does the IC50 read?
Its IC50 is 24.2 nM.

Which IC50 does the source give for `CC(Nc1ccn2ncc(-c3cnn(CCO)c3)c2n1)c1cc(F)ccc1OC(F)F` (stereo not drawn) [Compound a5-9, 2-(4-(5-((1-(2-(difluoromethoxy)-5-fluorophenyl)ethyl)amino)pyrazolo [1,5-a]pyrimidin-3-yl)-1H-pyrazol-1-yl) ethan-1-ol] here?
Its IC50 is 4 nM.

`CC(Nc1ccn2ncc(-c3cnn(C4CCOCC4)c3)c2n1)c1cc(F)ccc1OC(F)F` (stereo not drawn) [Compound a6-10, N-(1-(2-(difluoromethoxy)-5-fluorophenyl)ethyl)-3-(1-(tetrahydro-2H-pyran-4-yl)-1H-pyrazol-4-yl) pyrazolo [1,5-a] pyrimidin-5-amine] was tested. Which IC50 did it give?
The IC50 was 26.5 nM.

`CCOc1ccc(F)cc1C(C)Nc1ccn2ncc(-c3cnn(C4CCOCC4)c3)c2n1` (stereo not drawn) [Compound a7-12, N-(1-(2-ethoxy-5-fluorophenyl)ethyl)-3-(1-(tetrahydro-2H-pyran-4-yl)-1H-pyrazol-4-yl) pyrazolo [1,5-a] pyrimidin-5-amine] was tested. Which IC50 did it give?
The IC50 was 23 nM.

With `CC(Nc1ccn2ncc(-c3cnn(C(F)F)c3)c2n1)c1cc(F)ccc1OCCO` (stereo not drawn) [Compound a8-13, 2-(2-(1-((3-(1-(difluoromethyl)-1H-pyrazol-4-yl)pyrazolo [1,5-a]pyrimidin-5-yl)amino)ethyl)-4-fluorophenoxy) ethanol] as the compound, how does the IC50 read?
Its IC50 is 40.9 nM.

For `COCCOc1ccc(F)cc1C(C)Nc1ccn2ncc(-c3cnn(C4CCOCC4)c3)c2n1` (stereo not drawn) [Compound a9-14, N-(1-(5-fluoro-2-(2-methoxyethoxy)phenyl)ethyl)-3-(1-(tetrahydro-2H-pyran-4-yl)-1H-pyrazol-4-yl) pyrazolo [1,5-a] pyrimidin-5-amine], which IC50 is on record?
The IC50 was 67.8 nM.

For `C[C@@H](Nc1ccn2ncc(-c3cnn(CC#N)c3)c2n1)c1cc(F)ccc1OCCF` [Compound a12-19, (R)-2-(4-(5-((1-(5-fluoro-2-(2-fluoroethoxy)phenyl)ethyl)amino)pyrazolo [1,5-a]pyrimidin-3-yl)-1H-pyrazol-1-yl) acetonitrile], which IC50 is on record?
The IC50 was 3.3 nM.

With `CC(Nc1ccn2ncc(-c3cnn(C(C)C)c3)c2n1)c1cc(F)ccc1OCCF` (stereo not drawn) [Compound a13-20, N-(1-(5-fluoro-2-(2-fluoroethoxy)phenyl)ethyl)-3-(1-isopropyl-1H-pyrazol-4-yl) pyrazolo [1,5-a] pyrimidin-5-amine] as the compound, how does the IC50 read?
Its IC50 is 20.2 nM.

Which IC50 does the source give for `CC(Nc1ccn2ncc(-c3cnn(C4CC4)c3)c2n1)c1cc(F)ccc1OCCF` (stereo not drawn) [Compound a14-21, 3-(1-cyclopropyl-1H-pyrazol-4-yl)-N-(1-(5-fluoro-2-(2-fluoroethoxy)phenyl)ethyl) pyrazolo [1,5-a] pyrimidin-5-amine] here?
Its IC50 is 12 nM.

How did the IC50 turn out when `CC(Nc1ccn2ncc(-c3cnn(CCO)c3)c2n1)c1cc(F)ccc1OCCF` (stereo not drawn) [Compound a15-22, 2-(4-(5-((1-(5-fluoro-2-(2-fluoroethoxy)phenyl)ethyl)amino)pyrazolo [1,5-a]pyrimidin-3-yl)-1H-pyrazol-1-yl) ethanol] was run?
The IC50 was 7.9 nM.

Which IC50 does the source give for `CC(Nc1ccn2ncc(-c3cnn(CC(F)F)c3)c2n1)c1cc(F)ccc1OCCF` (stereo not drawn) [Compound a16-23, 3-(1-(2,2-difluoroethyl)-1H-pyrazol-4-yl)-N-(1-(5-fluoro-2-(2-fluoroethoxy)phenyl)ethyl) pyrazolo [1,5-a] pyrimidin-5-amine] here?
Its IC50 is 9 nM.

For `CC(Nc1ccn2ncc(-c3cnn(C4CCCC4O)c3)c2n1)c1cc(F)ccc1OCCF` (stereo not drawn) [Compound a17-24, 2-(4-(5-((1-(5-fluoro-2-(2-fluoroethoxy)phenyl)ethyl)amino)pyrazolo [1,5-a]pyrimidin-3-yl)-1H-pyrazol-1-yl) cyclopentan-1-ol], which IC50 is on record?
The IC50 was 7.6 nM.

For `CC(Nc1ccn2ncc(-c3cnn(C4CCCCC4O)c3)c2n1)c1cc(F)ccc1OCCF` (stereo not drawn) [Compound a18-25, 2-(4-(5-((1-(5-fluoro-2-(2-fluoroethoxy)phenyl)ethyl)amino)pyrazolo [1,5-a]pyrimidin-3-yl)-1H-pyrazol-1-yl) cyclohexan-1-ol], which IC50 is on record?
The IC50 was 9 nM.

How did the IC50 turn out when `CC(Nc1ccn2ncc(-c3cnn(C4CCOCC4)c3)c2n1)c1cc(F)ccc1OCCF` (stereo not drawn) [Compound a19-26, N-(1-(5-fluoro-2-(2-fluoroethoxy)phenyl)ethyl)-3-(1-(tetrahydro-2H-pyran-4-yl)-1H-pyrazol-4-yl) pyrazolo [1,5-a] pyrimidin-5-amine] was run?
The IC50 was 15.8 nM.

For `C[C@@H](Nc1ccn2ncc(-c3cnn(C4CCCCO4)c3)c2n1)c1cc(F)ccc1OCCF` (stereo partly drawn) [Compound a20-27, N-((R)-1-(5-fluoro-2-(2-fluoroethoxy)phenyl)ethyl)-3-(1-(tetrahydro-2H-pyran-2-yl)-1H-pyrazol-4-yl) pyrazolo [1,5-a] pyrimidin-5-amine], which IC50 is on record?
Its IC50 is 2.8 nM.

`CC(=O)n1cc(-c2cnn3ccc(NC(C)c4cc(F)ccc4OCCF)nc23)cn1` (stereo not drawn) [Compound a21-28, 1-(4-(5-((1-(5-fluoro-2-(2-fluoroethoxy)phenyl)ethyl)amino)pyrazolo [1,5-a]pyrimidin-3-yl)-1H-pyrazol-1-yl) ethanone] was tested. Which IC50 did it give?
Its IC50 is 5.3 nM.

How did the IC50 turn out when `CC(Nc1ccn2ncc(-c3cnn(S(C)(=O)=O)c3)c2n1)c1cc(F)ccc1OCCF` (stereo not drawn) [Compound a22-29, N-(1-(5-fluoro-2-(2-fluoroethoxy)phenyl)ethyl)-3-(1-(methylsulfonyl)-1H-pyrazol-4-yl) pyrazolo [1,5-a] pyrimidin-5-amine] was run?
The IC50 was 14.6 nM.

How did the IC50 turn out when `CC(Nc1ccn2ncc(-c3cnn(C4CCOCC4)c3)c2n1)c1cc(F)ccc1OCCCF` (stereo not drawn) [Compound a25-35, N-(1-(5-fluoro-2-(3-fluoropropoxy)phenyl)ethyl)-3-(1-(tetrahydro-2H-pyran-4-yl)-1H-pyrazol-4-yl) pyrazolo [1,5-a] pyrimidin-5-amine] was run?
Its IC50 is 24.8 nM.

Which IC50 does the source give for `CC(Nc1ccn2ncc(-c3cnn(C)c3)c2n1)c1cc(F)ccc1OCC1CCOCC1` (stereo not drawn) [Compound a28-43, N-(1-(5-fluoro-2-((tetrahydro-2H-pyran-4-yl)methoxy)phenyl)ethyl)-3-(1-methyl-1H-pyrazol-4-yl) pyrazolo [1,5-a] pyrimidin-5-amine] here?
Its IC50 is 110 nM.

Which IC50 does the source give for `CC(Nc1ccn2ncc(-c3cn[nH]c3)c2n1)c1cc(F)ccc1O` (stereo not drawn) [Compound b1-1, 2-(1-((3-(1H-pyrazol-4-yl)pyrazolo [1,5-a]pyrimidin-5-yl)amino)ethyl)-4-fluorophenol] here?
Its IC50 is 9.5 nM.

How did the IC50 turn out when `COc1ccc(F)cc1C(C)Nc1ccn2ncc(-c3cn[nH]c3)c2n1` (stereo not drawn) [Compound b2-5, N-(1-(5-fluoro-2-methoxyphenyl)ethyl)-3-(1H-pyrazol-4-yl) pyrazolo [1,5-a]pyrimidin-5-amine] was run?
The IC50 was 15.2 nM.

How did the IC50 turn out when `COCCOc1ccc(F)cc1C(C)Nc1ccn2ncc(-c3cn[nH]c3)c2n1` (stereo not drawn) [Compound b6-15, N-(1-(5-fluoro-2-(2-methoxyethoxy)phenyl)ethyl)-3-(1H-pyrazol-4-yl) pyrazolo [1,5-a] pyrimidin-5-amine] was run?
Its IC50 is 24 nM.

With `CC(Nc1ccn2ncc(-c3cn[nH]c3)c2n1)c1cc(F)ccc1OCC1CC1` (stereo not drawn) [Compound b12-37, N-(1-(2-(cyclopropylmethoxy)-5-fluorophenyl)ethyl)-3-(1H-pyrazol-4-yl) pyrazolo [1,5-a] pyrimidin-5-amine] as the compound, how does the IC50 read?
Its IC50 is 4.2 nM.

`CC(Nc1ccn2ncc(-c3cn[nH]c3)c2n1)c1cc(F)ccc1OCC1CCOCC1` (stereo not drawn) [Compound b15-42, N-(1-(5-fluoro-2-((tetrahydro-2H-pyran-4-yl)methoxy)phenyl)ethyl)-3-(1H-pyrazol-4-yl) pyrazolo [1,5-a] pyrimidin-5-amine] was tested. Which IC50 did it give?
Its IC50 is 55 nM.

With `CC(Nc1ccn2ncc(-c3cn[nH]c3)c2n1)c1cc(F)ccc1OCCN1CCOCC1` (stereo not drawn) [Compound b16-44, N-(1-(5-fluoro-2-(2-morpholinoethoxy)phenyl)ethyl)-3-(1H-pyrazol-4-yl) pyrazolo [1,5-a] pyrimidin-5-amine] as the compound, how does the IC50 read?
The IC50 was 364 nM.
